Experimental findings from article PMC8715119, “Second-generation non-hematopoietic erythropoietin-derived peptide for neuroprotection” (Redox Biology, 2021) are described below.

The test system of one assay is ERK. Briefly: Time-series immunoblot of phosphorylated ERK. Type of assay: cell-based, rat. The settings on record: PC12 cells; 1 nM; peak at 15 min, below basal at 30 min, then recovery; n = 3. The procedure: (§1) PC12 or HT-22 cells were lysed in 100 mM Tris-Cl (pH 6.8) with 4% SDS. The lysates were loaded onto sodium dodecyl sulfate-polyacrylamide gel electrophoresis (SDS-PAGE) (8–10%), and the proteins were transferred onto the nitrocellulose membrane. The membrane was blocked with 0.1% TBST and 5% non-fat dry milk at 25°C for 30 min. Primary antibodies were diluted in 0.1% TBST and 3% bovine serum albumin (BSA). The primary antibodies included anti-pJAK2 (#3776, Cell Signaling Technology, USA), anti-JAK2 (#3230, Cell Signaling Technology, USA), anti-pSTAT5 (#9351, Cell Signaling Technology, USA), anti-STAT5 ([…], Cell Signaling Technology, USA), anti-pAKT (#9271, Cell Signaling Technology, USA), anti-AKT (#9272, Cell Signaling Technology, USA), anti-pERK (#9101, Cell Signaling Technology, USA) anti-ERK (#9102, Cell Signaling Technology, USA), anti-EPOR (#sc-365662, Santa Cruz Biotechnology, USA), anti-β-Actin (Santa Cruz Biotechnology, USA), anti-Bax (Santa Cruz Biotechnology, USA), anti-cleaved Casp3 (Cell Signaling Technology, USA), and anti-cleaved Parp1 (Cell Signaling Technology, USA).
In general terms: A western blot detects proteins with antibodies after separation by electrophoresis.

The next assay concerns AKT. Description: Time-series immunoblot of phosphorylated AKT. The class given is cell-based, rat. The conditions noted are these: PC12 cells; 1 nM; deficient level by 30 min, maintained at 90 min; n = 3. The procedure: as §1

Turning to “reEPO: Recombinant human EPO (Epoetin-α, CJ HealthCare Corporation)”, the “Level of phosphorylated ERK (pERK) over time” value in the assay with ERK is “acutely increased the level of phosphorylated ERK”. Also, the “Level of phosphorylated AKT (pAKT) over time” value in the assay on AKT is “gradually reduced phosphorylated AKT”.
